#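 Grown in 96-well plates, cells were treated for 48 hours with each compound at five concentrations. Insufficient inhibition: endpoint recorded as highest concentration tested. GI50 is the concentration that inhibits growth by half.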 Active and inactive are the calls of the source. No stated cut-off is given here; in the data, active = GI50 up to about 1.1 µM and inactive = higher.
# Tests used:
# Assay in all cases: DTP human tumour cell line panel, 48 h
# [1] = test system: OVCAR-4
# [2] = test system: Hs-578T
# [3] = test system: HCT-15
# [4] = test system: KM12
# [5] = test system: CAKI-1
# [6] = test system: NCI-H226
# [7] = test system: ACHN
# [8] = test system: EKVX
# [9] = test system: HL-60
# [10] = test system: HT-29
# [11] = test system: PC-3
# [12] = test system: SNB-75
# [13] = test system: SNB-19
# [14] = test system: LOX IMVI
# [15] = test system: SN12C
# [16] = test system: SK-MEL-5
# [17] = test system: SF-295
# [18] = test system: OVCAR-8
# [19] = test system: BT-549
SMILES,GI50 [1],GI50 [2],GI50 [3] [µM],GI50 [4],GI50 [5],GI50 [6],GI50 [7],GI50 [8],GI50 [9],GI50 [10],GI50 [11],GI50 [12],GI50 [13],GI50 [14],GI50 [15],GI50 [16],GI50 [17],GI50 [18],GI50 [19]
CCCCCc1cc(CCCC)sc1-c1ccco1,> 100 µM (inactive),> 100 µM (inactive),> 100,> 86.9 µM (inactive),> 100 µM (inactive),> 100 µM (inactive),> 100 µM (inactive),> 87.1 µM (inactive),21.7 µM (inactive),45 µM (inactive),> 100 µM (inactive),> 100 µM (inactive),> 100 µM (inactive),49.9 µM (inactive),> 100 µM (inactive),> 100 µM (inactive),> 85.5 µM (inactive),> 100 µM (inactive),> 100 µM (inactive)
Cn1c(=O)c2c(nc3n(C)c(=O)c4ccccc4n23)n(C)c1=O,> 100 µM (inactive),59.3 µM (inactive),35.1,53.6 µM (inactive),24.3 µM (inactive),30 µM (inactive),17.1 µM (inactive),> 100 µM (inactive),24 µM (inactive),75.3 µM (inactive),> 95.3 µM (inactive),40.1 µM (inactive),25.8 µM (inactive),38.7 µM (inactive),29.2 µM (inactive),27.8 µM (inactive),22.4 µM (inactive),33 µM (inactive),> 80.4 µM (inactive)
O=C(c1c(F)c(F)c(F)c(F)c1F)N1CCN(C(=O)c2c(F)c(F)c(F)c(F)c2F)C1=S,5.22 µM (inactive),4.66 µM (inactive),2.2,6 µM (inactive),2.69 µM (inactive),15.4 µM (inactive),7.69 µM (inactive),13 µM (inactive),1.07 µM (active),5.48 µM (inactive),7.67 µM (inactive),11 µM (inactive),16.4 µM (inactive),2.51 µM (inactive),8.11 µM (inactive),6.9 µM (inactive),15.1 µM (inactive),5.05 µM (inactive),13.6 µM (inactive)
N#CCCN(C(=O)Nc1ccc(NC(=O)N(CCC#N)c2ccccc2)cc1)c1ccccc1,> 100 µM (inactive),> 100 µM (inactive),> 100,> 100 µM (inactive),> 100 µM (inactive),> 100 µM (inactive),> 100 µM (inactive),> 100 µM (inactive),> 100 µM (inactive),> 100 µM (inactive),> 100 µM (inactive),> 100 µM (inactive),> 100 µM (inactive),> 100 µM (inactive),> 100 µM (inactive),> 100 µM (inactive),> 100 µM (inactive),> 100 µM (inactive),> 100 µM (inactive)
CSC(SC)=C(C#N)C(=O)Nc1cccc(Cl)c1,27.9 µM (inactive),> 100 µM (inactive),38.4,> 100 µM (inactive),45.9 µM (inactive),> 100 µM (inactive),75.2 µM (inactive),> 100 µM (inactive),15.4 µM (inactive),46.7 µM (inactive),50.4 µM (inactive),> 100 µM (inactive),> 100 µM (inactive),93.3 µM (inactive),> 100 µM (inactive),10.3 µM (inactive),42.6 µM (inactive),48.8 µM (inactive),36.6 µM (inactive)
CC(C)NC(NC(C)C)=C(S(=O)(=O)C(F)(F)C(F)(F)C(F)(F)C(F)(F)F)S(=O)(=O)C(F)(F)C(F)(F)C(F)(F)C(F)(F)F,> 100 µM (inactive),> 100 µM (inactive),> 100,> 100 µM (inactive),> 100 µM (inactive),> 100 µM (inactive),> 100 µM (inactive),> 100 µM (inactive),> 100 µM (inactive),> 100 µM (inactive),> 100 µM (inactive),> 100 µM (inactive),> 100 µM (inactive),> 100 µM (inactive),> 100 µM (inactive),> 100 µM (inactive),> 100 µM (inactive),> 100 µM (inactive),90.8 µM (inactive)
CCN1CCN(c2nc3ccccc3c3c2CCOc2ccccc2-3)CC1,> 53.2 µM (inactive),29.9 µM (inactive),16.6,24.9 µM (inactive),25.1 µM (inactive),> 47.1 µM (inactive),> 61.2 µM (inactive),> 100 µM (inactive),1.05 µM (active),> 31 µM (inactive),32.7 µM (inactive),> 40.6 µM (inactive),39.1 µM (inactive),16.5 µM (inactive),> 55.3 µM (inactive),15 µM (inactive),27.4 µM (inactive),> 45.1 µM (inactive),> 100 µM (inactive)
O=C1C(SCCO)=C(SCCO)C(=O)c2ccccc21,0.252 µM (active),1.17 µM (inactive),1.39,1.75 µM (inactive),2.08 µM (inactive),1.71 µM (inactive),0.807 µM (active),1.6 µM (inactive),1.17 µM (inactive),2.16 µM (inactive),2.1 µM (inactive),1.29 µM (inactive),1.78 µM (inactive),0.222 µM (active),1.6 µM (inactive),0.238 µM (active),1.48 µM (inactive),0.579 µM (active),1.43 µM (inactive)

# — ChEMBL document CHEMBL1201862, “PubChem BioAssay data set” (2004)
